This is an account of results in article PMC7006784, “The combination of salvianolic acid A with latamoxef completely protects mice against lethal pneumonia caused by methicillin-resistant Staphylococcus aureus” (Emerging Microbes & Infections, 2020).

SMILES strings stand for the structures. Marks after values point to notes of the source that are not given here.

Assay [1] deals with T1, SrtA (Staphylococcus aureus, UniProt Q2FV99).
T1 construct: The gene encoding SrtA (lacking the N-terminal transmembrane domain (N1–59)); made in house
T1 sequence (Q2FV99 60-206): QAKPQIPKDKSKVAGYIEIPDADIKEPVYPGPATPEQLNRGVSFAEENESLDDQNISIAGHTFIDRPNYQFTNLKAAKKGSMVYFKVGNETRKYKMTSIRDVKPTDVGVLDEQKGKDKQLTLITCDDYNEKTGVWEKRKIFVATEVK
Nature of the assay: Reversible inhibition assay of SrtA. Type of assay: biochemical, S. aureus. The note with it: after incubation at 10 × IC50 and dilution. As to the method: To evaluate the reversible inhibition by Sal A of SrtA, 100 μl of purified SrtA was incubated with Sal A at a final concentration equal to 10-fold the IC50 for 1 h at 37°C. Then, 9.9 ml reaction buffer was added. Subsequently, 10 μl of the substrate peptide was added to the 190 μl diluted mixture at a final concentration of 10 μM. The fluorescence intensity was measured using a microplate reader at λex = 350 nm and λem = 495 nm. Triplicate measurements were obtained for each data point, and the data are reported as the mean ± SEM.

In assay [2] the test system is adhesion of S. aureus to fibrinogen. Nature of the assay: Fibrinogen binding assay. Type of assay: cell-based. The note with it: bovine fibrinogen coated plate, crystal violet. The method, then: Overnight cultures of S. aureus were subcultured into fresh medium with or without Sal A and then grown until the OD600 reached 0.5. Then, 100 μl of the bacterial culture was transferred into each well of a polystyrene 96-well plate coated with 20 μg/ml bovine fibrinogen and incubated for 2 h at 37°C. The cell suspension was discarded, and the wells were rinsed twice with PBS. Then, 25% formaldehyde was added and incubated for 30 min, and the plate was washed three times and stained with crystal violet dye (12.5 g/l). The binding of S. aureus to fibrinogen was quantitated as described previously. The data are presented as the mean ± SEM from three separate experiments.

The test system of assay [3] is S. aureus protein A (SpA). Nature of the assay: SpA-related fluorescence analysis (confocal microscopy). The format is cell-based. Conditions: 256 μg/ml, FITC-labelled IgG. As to the method:
An overnight culture of S. aureus was diluted 1:100 in BHI broth with or without Sal A and grown until the OD600 reached 1.0. After centrifugation at 2,500 × g for 10 min, the bacterial pellets were fixed with 4% formaldehyde solution for 30 min. After washing three times with PBS, 5% BSA was added for blocking, and the bacteria were incubated for 20 min. Then, the bacteria were rinsed with PBS and resuspended in PBS containing FITC-labelled rabbit anti-goat-IgG (Sigma) at a dilution of 1:50 and incubated at 37°C for 3 h. After washing three times with PBS, the bacteria were placed onto poly-lysine-coated glass slides, and the SpA on the cell surface was visualized by confocal microscopy (Zeiss, LSM 880).

Assay [4] concerns SrtA. Kind of assay: Western blot of SrtA expression. The note with it: 256, 128, 64, or 32 μg/ml, Western blot with grayscale analysis. The format is cell-based, S. aureus. The method, then:
The dissolved cell wall proteins and cytoplasmic membranes were obtained according to a previously reported method. Equal volumes of protein extract were separated using a 12% SDS-PAGE gel, and the proteins were transferred onto polyvinylidine difluoride membranes (Wako Pure Chemical Industries, Ltd., Osaka, Japan). After blotting, the membrane was blocked with 5% BSA for 2 h and probed with primary antibodies against S. aureus SrtA overnight at 4°C. Next, the membrane was washed and incubated with HRP-labelled goat anti-rabbit IgG. After washing again with PBS, the immunoreactive bands were visualized by an ECL Western blot detection system (GE Healthcare, UK). The primary antibodies against S. aureus SrtA were produced in-house by our team members. The secondary HRP-labelled goat anti-rabbit IgG antibody was obtained from Proteintech (Chicago, USA).
On the technique in general: A western blot detects proteins with antibodies after separation by electrophoresis.

A further assay concerns T2, WT-SrtA.
T2 construct: The gene encoding SrtA (lacking the N-terminal transmembrane domain (N1–59)); 6xHis (N); made in house
Nature of the assay: Fluorescence quenching assay, WT-SrtA. Type of assay: binding, S. aureus. As to the method:
(§1) The fluorescence quenching assay was performed as previously described. Briefly, purified SrtA and mutant protein were diluted to 500 ng/ml with PBS. A total of 2.5 ml diluted protein solution was mixed with Sal A at different concentrations ranging from 0 to 4.5 μg. After incubation for 10 min, the fluorescence spectra of the mixed solutions were measured using a fluorescence spectrophotometer (RF5301, Japan). For the fluorescence measurement, the excitation and emission slits were set at 5.0 nm, the excitation wavelength was set at 280 nm, and fluorescence emission spectra in the range of 290–500 nm were scanned; the fluorescence intensity at 340 nm was recorded. All assays were performed in triplicate.

For the next assay, the system named is T3, A92L-SrtA.
T3 construct: The gene encoding SrtA (lacking the N-terminal transmembrane domain (N1–59)); 6xHis (N); made in house
Kind of assay: Fluorescence quenching assay, A92L-SrtA. The format is binding, S. aureus. The note with it: fluorescence spectroscopy quenching. The method, then:
as §1

In the next assay the test system is T4, A104L-SrtA.
T4 construct: The gene encoding SrtA (lacking the N-terminal transmembrane domain (N1–59)); 6xHis (N); made in house
Kind of assay: Fluorescence quenching assay, A104L-SrtA. Conditions: fluorescence spectroscopy quenching. Type of assay: binding, S. aureus. The method, then: as §1

A further assay deals with T5, I182A-SrtA.
T5 construct: The gene encoding SrtA (lacking the N-terminal transmembrane domain (N1–59)); 6xHis (N); made in house
Nature of the assay: Fluorescence quenching assay, I182A-SrtA. Type of assay: binding, S. aureus. Conditions: fluorescence spectroscopy quenching. The method, then:
as §1

The test system of a further assay is T6, R197A-SrtA.
T6 construct: The gene encoding SrtA (lacking the N-terminal transmembrane domain (N1–59)); 6xHis (N); made in house
Kind of assay: Fluorescence quenching assay, R197A-SrtA. Type of assay: binding, S. aureus. Conditions: fluorescence spectroscopy quenching. The method, then:
as §1

Another assay relates to S. aureus USA300. Nature of the assay: Pneumonia model, bacterial load and histopathology of the lungs. Type of assay: in vivo, C57BL/6J mice. Conditions: mice, 1 × 10^9 CFU i.n., 24 h. As to the method:
The animal experiments were performed using 6- to 8-week-old female C57BL/6J mice obtained from the Experimental Animal Center of Jilin University and conducted according to the guidelines of the Animal Care and Use Committee of Jilin University. The mouse S. aureus pneumonia model was generated as described previously. Briefly, the mice were anaesthetized with ether and inoculated with 30 μl bacterial resuspension via the left nare. The mice were then held upright to allow the bacteria to be inhaled into the lungs. For the survival assessment, groups of 10 mice were challenged with 2 × 10^9 CFU S. aureus. One hour after intranasal inoculation, the mice were subcutaneously injected with 100 mg/kg of Sal A, 75 mg/kg of latamoxef or 100 mg/kg of Sal A plus 75 mg/kg of latamoxef at 12 h intervals, and survival was assessed for 96 h. For the bacterial load, histopathological, and bronchoalveolar lavage fluid (BALF) experiments, mice were inoculated with 1 × 10^9 CFU S. aureus. The mice were then given a subcutaneous injection of 100 mg/kg Sal A, 75 mg/kg latamoxef or a combination of 100 mg/kg Sal A and 75 mg/kg every 12 h. After 24 h, the left lung of each anaesthetized mouse was aseptically excised and homogenized, and the CFU was determined by serial dilutions. The right lungs from each group of mice were excised for histopathological analysis, and the samples were fixed in 10% formalin and stained with haematoxylin and eosin (H&E).

Take `O=C(/C=C/c1ccc(O)c(O)c1/C=C/c1ccc(O)c(O)c1)O[C@H](Cc1ccc(O)c(O)c1)C(=O)O` [Sal A, (2R)-3-(3,4-Dihydroxyphenyl)-2-[(E)-3-[2-[(E)-2-(3,4-dihydroxyphenyl)ethenyl]-3,4-dihydroxyphenyl]prop-2-enoyl]oxypropanoic acid]: the “SrtA activity recovered in comparison with the control group” value at SrtA [1] was 88 ± 3.21%. Also, the “adhesion of S. aureus to fibrinogen” value in assay [2] was “inhibited the adhesion of S. aureus to fibrinogen in a dose-dependent manner”. Moreover, in [3], the “level of green fluorescence (SpA on surface) compared with the WT group” value is listed as “considerably reduced”. Also, the “expression of SrtA” value in the assay with SrtA [4] is listed as “did not impact the expression”. Further, the KA in the assay on WT-SrtA (fluorescence quenching, WT SrtA) was 58000 L/mol; in the assay with WT-SrtA (fluorescence spectroscopy quenching, WT-SrtA), 5.8 (1 × 10^4) l/mol; in the assay with A92L-SrtA, 3.78 (1 × 10^4) l/mol; in the assay with A104L-SrtA, 2.62 (1 × 10^4) l/mol; in the assay with I182A-SrtA, 1.03 (1 × 10^4) l/mol; in the assay with R197A-SrtA, 2.22 (1 × 10^4) l/mol. Moreover, the “viable MRSA loads in the lungs in comparison with the control” value in the assay on S. aureus USA300 (s.c. 100 mg/kg Sal A and/or 75 mg/kg latamoxef every 12 h) is listed as “significantly decreased”. The “pulmonary inflammation (histopathology of the lungs)” value in the assay on S. aureus USA300 (s.c. 100 mg/kg Sal A and/or 75 mg/kg latamoxef, H&E) is recorded as “alleviated”.
